Values after ≈ are worked out from the molar mass of the structure shown. Where two headings read alike, the source gives them in different places.
Tests used:
[1] = tested on: H441 p-ERK; assay: Cell p-ERK assay (HTRF), NCI-H441 cells; assay type: cell-based, human; conditions: Homo sapiens; NCI-H441 cells (KRAS G12V), 3 h incubation
Summary of the method: (§1)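 Phospho-ERK (T202/Y204) was measured by HTRF in lysates after 3 h compound treatment at 37 °C. Cells had been plated the previous day at 20000 per well for NCI-H441 and 10000 per well for AsPC-1. Four-parameter dose-response fitting of % inhibition gave IC50 values.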

[2] = tested on: AsPC-1 p-ERK; assay: Cell p-ERK assay (HTRF), AsPC-1 cells; assay type: cell-based, human; conditions: Homo sapiens
Summary of the method: as §1

[3] = tested on: AsPC-1 cells; assay: 3D cell proliferation assay (CellTiter Glo-3D), AsPC-1; assay type: cell-based, human; conditions: Homo sapiens, ASPC1, 120 h; AsPC-1 cells (KRAS G12D), 3D, 2% FBS, 5 days; read-out: AsPC-1 AP IC50
Summary of the method: (§2)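 IC50 values come from four-parameter fits of inhibition rate against log compound concentration, using CellTiter-Glo luminescence read after 5 days' exposure. AsPC-1 and NCI-H441 were plated at 800 cells per well in low-serum (2% FBS) medium. Compound was dosed the day after seeding, with incubation at 37 °C, 5% CO2.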

[4] = Solubility experiment (HPLC, external standard); assay type: physicochemical; conditions: 37 °C, 24 h; for solubility at 24 h: ph 7.4 medium, pH 7.4, pH 7.4 medium
Protocol: This experiment was intended to determine the solubility of the compounds in media at different pH values. The materials used in the experiment included: a pH 1.2 medium, a pH 4.5 medium, a pH 7.4 medium, and a diluent (acetonitrile/water = 50/50). 1. The preparation methods for media are as follows:
One centrifuge tube (containing about 2 mg of the test sample) was taken, 1 mL of DMSO was added to completely dissolve the test sample, and the mixture was marked as stock-1. 0.2 mL of stock-1 was transferred into a 10 mL volumetric flask, and then the 50:50 (acetonitrile/water) solution was added to bring the volume to the mark, so as to give a control solution.
Additionally, centrifuge tubes each containing about 1 mg of the test sample were taken, 1 mL of the corresponding medium solution was then added, and the tubes were shaken on a 37 °C water bath shaker for 24 h. After centrifugation for 3 times (centrifugation time: 10 min, rotation speed: 12000 rpm), 0.2 mL of the supernatants were taken, 0.8 mL of the diluent (acetonitrile/water = 50/50) was added to each tube, and the mixtures were vortexed and mixed well to give solubility samples.
The solubility samples described above and the control solution were sequentially analyzed by high performance liquid chromatography. The chromatographic conditions are as follows:
The actual concentration of the compound in each solubility sample was calculated according to an external standard method. Concentration (μg/mL) = (ASample × CControl × DSample)/(AControl)∗1000; [formula] Asample: the peak area of the target peak in the sample solution; Ccontrol: the concentration (mg/mL) of the control solution; Dsample: the dilution factor of the sample solution; Acontrol: the peak area of the target peak in the control solution.

[5] = tested on: NCI-H441 cells; assay: 3D cell proliferation assay (CellTiter Glo-3D), NCI-H441; assay type: cell-based, human; conditions: Homo sapiens, 120 h, NCI-H441 cells (KRAS G12V), 2% FBS, 5 days, read-out: H441 AP IC50
Summary of the method: as §2

Row | SMILES | IC50 [1] [nM] | IC50 ([2]; ASPC1, AsPC-1 cells (KRAS G12D), 3 h incubation, read-out: AsPC-1 p-ERK IC50) [nM] | IC50 [3] [nM] | solubility at 24 h [4] [µg/mL] | IC50 [5] [nM] | Solubility at pH 7.4 (µg/mL) ([4]; pH 7.4 medium) | IC50 ([2]; ASPC1, 3 h, read-out: AsPC-1 p-ERK IC50(nM)) [nM]
1 | CCn1c(-c2cc(C#CCN3CCC(C(=O)NCCO)CC3)cnc2[C@H](C)OC)c2c3cc(ccc31)-c1csc(n1)C[C@H](NC(=O)[C@H]1[C@@H]3COC[C@@H]31)C(=O)N1CCC[C@H](N1)C(=O)OCC(C)(C)C2 (atropisomer, axis not shown; (Ra)) [Compound Z21, 1-(3-(5-((6^3S,4S,Z)-4-((1R,5S,6r)-3-oxabicyclo[3.1.0]hexane-6-carboxamido)-1^1-ethyl-10,10-dimethyl-5,7-dioxo-6^1,6^2,6^3,6^4,6^5,6^6-hexahydro-1^1H-8-oxa-2(4,2)-thiazola-1(5,3)-indola-6(1,3)-pyridazinacycloundecaphane-1^2-yl)-6-(Ra)-((S)-1-methoxyethyl)pyridin-3-yl)prop-2-yn-1-yl)-N-(2-hydroxyethyl)piperidine-4-carboxamide] | 0.51 | 1.68 | 1.11 | 9.71 (≈ 10.2 µM) | 0.41 | – | –
2 | COCCn1c(-c2cc(C#CCN3CCN(C(=O)CO)CC3)cnc2[C@H](C)OC)c2c3cc(ccc31)-c1csc(n1)C[C@H](NC(=O)[C@H]1[C@@H]3COC[C@@H]31)C(=O)N1CCC[C@H](N1)C(=O)OCC(C)(C)C2 (atropisomer, axis not shown; (Sa)) [Compound Z31-2, (1R,5S,6r)-N-((6^3S,4S,Z)-(Sa)-1^2-(5-(3-(4-(2-hydroxyacetyl)piperazin-1-yl)prop-1-yn-1-yl)-2-((S)-1-methoxyethyl)pyridin-3-yl)-1^1-(methoxyethyl)-10,10-dimethyl-5,7-dioxo-6^1,6^2,6^3,6^4,6^5,6^6-hexahydro-1^1H-8-oxa-2(4,2)-thiazola-1(5,3)-indola-6(1,3)-pyridazinacycloundecaphane-4-yl)-3-oxabicyclo[3.1.0]hexane-6-carboxamide] | – | – | – | 22 (≈ 23.1 µM) | – | – | –
3 | CCn1c(-c2cc(C#CCN3CCS(=O)(=O)CC3)cnc2[C@H](C)NC)c2c3cc(ccc31)-c1csc(n1)C[C@H](NC(=O)[C@H]1[C@H](C)[C@@H]1C)C(=O)N1CCC[C@H](N1)C(=O)OCC(C)(C)C2 (atropisomer, axis not shown; (Sa)) [Compound Z66-1, (1r,2R,3S)-N-((6^3S,4S,Z)-(Sa)-1^2-(5-(3-(1,1-dioxidothiomorpholino)prop-1-yn-1-yl)-2-((S)-1-(methylamino)ethyl)pyridin-3-yl)-11-ethyl-10,10-dimethyl-5,7-dioxo-6^1,6^2,6^3,6^4,6^5,6^6-hexahydro-1^1H-8-oxa-2(4,2)-thiazola-1(5,3)-indola-6(1,3)-pyridazinacycloundecaphane-4-yl)-2,3-dimethylcyclopropane-1-carboxamide] | – | – | – | – | – | 158.5 | –
4 | CCn1c(-c2cc(C#CCN3CCS(=O)(=O)CC3)cnc2[C@H](C)OC)c2c3cc(ccc31)-c1csc(n1)C[C@H](NC(=O)[C@@H](N)C1CCC1)C(=O)N1CCC[C@H](N1)C(=O)OCC(C)(C)C2 (atropisomer, axis not shown; (Ra)) [Compound Z16, (2S)-2-amino-2-cyclobutyl-N-((6^3S,4S,Z)-(Ra)-1^2-(5-(3-(1,1-dioxidothiomorpholino)prop-1-yn-1-yl)-2-((S)-1-methoxyethyl)pyridin-3-yl)-1^1-ethyl-10,10-dimethyl-5,7-dioxo-6^1,6^2,6^3,6^4,6^5,6^6-hexahydro-1^1H-8-oxa-2(4,2)-thiazola-1(5,3)-indola-6(1,3)-pyridazinacycloundecaphane-4-yl)acetamide] | 1.14 | – | – | 15 (≈ 16.4 µM) | – | – | 1.67
